{
  "source": "paper PMC9249808",
  "about": "“A novel lipidic peptide with potential to promote balanced effector-regulatory T cell responses” (Scientific Reports, 2022)",
  "key": {"[1]": {"test_system": "CD4+ T cells within T cell cultures", "test": "Flow cytometry of CD4+ T cells within isolated CD3+ T cell cultures (anti-CD3/anti-CD28)", "format": "cell-based, human", "conditions": "anti-CD3/anti-CD28, 72 h, MFI, Fig. 1b (IK14004), Fig. 1e (IK14000)", "description": "CD3^+ T cells were isolated from PBMCs by negative selection using immune-magnetic separation (Stem cell kits), resuspended in complete medium as used for PBMCs at 0.5 × 10^6/mL and plated at a density of 5 × 10^4 per well (100 µL) in 96-well, flat bottom culture plates. CD4^+ and CD8^+ T cell populations were isolated by immunomagnetic separation and resuspended in RPMI-10 at 0.5 × 10^6/mL with a plating density of 0.5 × 10^5 per well. Either the lipidic peptide, IK14004, or IK14000 ([…]) was added to wells at a final volume of 50 µL per well, together with anti-CD3 anti-CD28 coated Dynabeads (ThermoFisher) at a 4:1 cell:bead ratio (1.25 × 10^4/well, 50 µL volume) and cells cultured for 72 h at 37 °C and 5% CO2. […]\nFor flow cytometry and ELISA experiments, data from IK14004 and vehicle groups were analysed using parametric statistical procedures. […]"}, "c-Src": {"test_system": "c-Src", "conditions": "cited from earlier work", "excerpt": "Given the role of NFAT proteins in regulating transcription of IFN-γ[46],[47], suppression of NFAT attenuates IFN-γ-activated endogenous IL-12p40 mRNA expression. In addition, IFN-γ production in DCs is dependent on a Janus kinase (JAK) family member, Tyk2, that signals via signal transducers and activators of transcription (STATs)[49] and within DCs, c-Src contributes to c ... || Given the role of Lck in upstream signalling upon TCR activation[34],[35] which leads to IL-2 production[10],[11], we tested the effect of a known Lck inhibitor, A-770041 on IL-2 expression within supernatants from stimulated T cell cultures after 72 h."}, "[2]": {"test_system": "CD8+ T cells within PBMC cultures", "test": "Intracellular IFN-γ in CD8+ T cells within PBMC cultures (flow cytometry)", "format": "cell-based, human", "conditions": "anti-CD3, 24 h, MFI, n = 4, Fig. 5d", "description": "(§1) PBMCs were resuspended in RPMI-10 (RPMI-1640; ThermoFisher) supplemented with 10% heat inactivated Foetal Bovine Serum (LabTech), 100 U/mL penicillin, 100 µg/mL streptomycin (ThermoFisher), 2 mM L-glutamine (ThermoFisher), and 50 µM β-mercaptoethanol (ThermoFisher) at 1 × 10^6 cells/mL and plated at a density of 1 × 10^5 per well (100 µL) in 96-well, flat-bottom culture plates. PBMCs were stimulated with 1 µg/mL of soluble anti-CD3 (BioLegend). The lipidic peptide, IK14004, and IK14000, i.e., […] minus conjugation to [{2}Adod]4, were solubilised as a 1 mM stock solution in sterile milliQ water (Lonza) and added to wells at a final volume of 50 µL per well together with soluble anti-CD3 (1 µg/mL final, 50 µL per well) (Biolegend). To test the effect of peptides, cells were cultured for 24–72 h at 37 °C and 5% CO2. Vehicle controls in peptide-based experiments comprised 0.13% sterile milliQ water in culture medium whereas 0.1% DMSO in culture medium was used as vehicle control for comparison with the Lck inhibitor, A-770041, in the absence of peptides. […]"}, "[3]": {"test_system": "CD4+ T cells within PBMC cultures", "test": "Intracellular IFN-γ in CD4+ T cells within PBMC cultures (flow cytometry)", "format": "cell-based, human", "conditions": "anti-CD3, 24 h, MFI, n = 4, Fig. 5c", "description": "as §1"}},
  "data": [
    {"sequence": "RSKAKNPLYR [IK14000]", "values": [
      {"measurement": "CD25 expression in CD4+ T cells", "setting": "[1]", "value": "decrease in CD25 expression in CD4+ T cells at higher concentrations"},
      {"measurement": "c-Src activity, earlier report", "setting": "c-Src", "value": "inhibits c-Src activity"},
      {"measurement": "intracellular expression of IFN-γ in CD8+ T cells", "setting": "[2]", "value": "unchanged"},
      {"measurement": "intracellular expression of IFN-γ in CD4+ T cells", "setting": "[3]", "value": "unchanged"}
    ]}
  ]
}
